Experimental data: EP4810040A2, “INHIBITORS OF APOL1 AND METHODS OF USING SAME” (priority 2020, dated 2022)
Read-outs that look alike come from different tables or passages of the source.

Target: T1, APOL1 G1 (Homo sapiens, UniProt O14791, I384M/S342G)
T1 sequence (O14791 28-398 S342G/I384M): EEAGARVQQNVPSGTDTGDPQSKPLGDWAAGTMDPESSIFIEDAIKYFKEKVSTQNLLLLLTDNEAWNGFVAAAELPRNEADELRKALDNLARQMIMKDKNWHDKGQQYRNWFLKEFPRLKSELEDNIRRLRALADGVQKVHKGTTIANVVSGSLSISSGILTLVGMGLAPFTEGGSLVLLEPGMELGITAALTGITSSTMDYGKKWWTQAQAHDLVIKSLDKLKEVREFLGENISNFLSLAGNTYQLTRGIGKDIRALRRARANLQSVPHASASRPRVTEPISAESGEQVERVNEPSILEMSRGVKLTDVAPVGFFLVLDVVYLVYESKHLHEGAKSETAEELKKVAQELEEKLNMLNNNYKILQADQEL
Experiment: MultiTox-Fluor Multiplex Cytotoxicity Assay, tet-inducible APOL1 G1 T-REx-HEK293 cells
Type: cell-based
Parameters: expressed in transfected cells; host or cells: T-REx HEK293, clone G1 DC3.25 (pAAVS1-Puro-APOL1 G1)
Details: for IC90: read-out: Multi-Tox Assay IC90; for Emax / Multi-Tox Assay Max Activity (%): APOL1 variant not given; for Emax: read-out: Multi-Tox Assay Max Activity (%)
Procedure: The MultiTox-Fluor Multiplex Cytotoxicity Assay is a single-reagent-addition, homogeneous, fluorescence assay that measures the number of live and dead cells simultaneously in culture wells. The assay measures cell viability and cytotoxicity by detecting two distinct protease activities. The live-cell protease activity is restricted to intact viable cells and is measured using a fluorogenic, cell-permeant peptide glycyl-phenylalanylamino fluorocoumarin (GF-AFC) substrate. The substrate enters intact cells, where it is cleaved to generate a fluorescent signal proportional to the number of living cells. […] A second, cell-impermeant, fluorogenic peptide substrate (bis-AAF-R110 Substrate) is used to measure dead-cell protease that has been released from cells that have lost membrane integrity. A ratio of dead to live cells is used to normalize data.
Briefly, the tet-inducible transgenic APOL1 T-REx-HEK293 cell lines were incubated with 50 ng/mL tet to induce APOL1 in the presence of 3-(2-(4-fluorophenyl)-1H-indol-3-yl)-N-((3S,4R)-4-hydroxy-2-oxopyrrolidin-3-yl)propenamide at […], 0.0045, 0.0015, 0.0005 µM in duplicate for 24 hours in a humidified 37°C incubator. The MultiTox reagent was added to each well and placed back in the incubator for an additional 30 minutes. The plate was read on the EnVision plate reader. A ratio of dead to live cells was used to normalize, and data was imported, analyzed and fit using Genedata Screener (Basel, Switzerland) software. Data was normalized using percent of control, no tet (100% viability), and 50 ng/mL tet treated (0% viability),and fit using Smart Fit. The reagents, methods, and complete protocol for the MultiTox assay are described below. Table 42. Reagents Used in the Multi-Tox Assay
Human embryonic kidney (HEK293) cell lines containing a tet-inducible expression system (T-REx™; Invitrogen, Carlsbad, CA) and Adeno-associated virus site 1 pAA VS1-Puro-APOL1 G0 or pAAVS1-Puro-APOL1 G1 or pAAVS1-Puro-APOL1 G2 Clones G0 DC2.13, G1 DC3.25, and G2 DC4.44 were grown in a T-225 flask at ~90% confluency in cell growth media (DMEM, 10% Tet-free FBS, 2 mM L-glutamine, 100 Units/mL penicillin-streptomycin, 5 µg/mL blasticidin S HCl, 1 µg/mL puromycin dihydrochloride). Cells were washed with DPBS and then trypsinized to dissociate from the flask. Media was used to quench the trypsin, cells were then pelleted at 200g and resuspended in fresh cell assay media (DMEM, 2% Tet-free FBS, 2 mM L-glutamine, 100 Units/mL penicillin-streptomycin). Cells were counted and diluted to 1.17 x 10^6 cells/mL. 20 µL of cells (23,400/well) were dispensed to every well of a 384-well Poly-D-Lysine coated plate using the Multidrop dispenser. The plates were then incubated at room temperature for one hour.
Tetracycline is needed to induce APOL1 expression. 1 mg/mL tet stock in water was diluted to 250 ng/mL (5X) in cell assay media. 60 µL of cell assay media (no tet control) was dispensed in columns 1 and 24, and 60 µL of 5X tet was dispensed in 384-PP-round bottom plate in columns 2 to 23 with the Multidrop dispenser.
Assay ready plates from the Global Compound Archive were ordered using template 384_APOL1Cell_DR10n2_50uM_v3. Compounds were dispensed at 200 nL in DMSO. The final top concentration was 10 µM with a 10 point 3-fold dilution in duplicate in the MultiTox assay.
20 µL were transferred from the 5X tet plate to the ARP and mixed, then 5 µL of 5X tet and the compounds were transferred to the cell plate and mixed using the Bravo. The cell plate was placed in the humidified 37°C 5% CO2 incubator for 24 hours.
The MultiTox-Fluor Multiplex Cytotoxicity Assay was performed in accordance with the manufacturer's protocol. […]

[1] = HEK293, Multi-Tox Assay, APOL1 variant (G0/G1/G2) of the HEK293 cells not given

C[C@@H]1CC2(C[C@H](C)N1)OCCc1cc(Cl)sc12 (single isomer, unassigned) [Compound 204]
IC90 [1]: 50 to 500 nM | Emax (Multi-Tox Assay): 99%

C[C@H]1C[C@@]2(C[C@@H](c3cn(Cc4ccc(S(C)(=O)=O)cc4)nn3)N1)OC[C@@H](O)c1cc(Cl)sc12 [Compound 238]
IC90 [1]: 50 to 500 nM | Multi-Tox Assay Max Activity (%) (Multi-Tox Assay): 100%

Cc1ncc([C@@H]2C[C@]3(C[C@H](C)N2)OCCc2cc(Cl)sc23)o1 (racemic) [Compound 94]
IC90 [1]: < 50 nM | Emax (Multi-Tox Assay): 100%

C[C@H]1C[C@@]2(C[C@@H](c3cn(C)nn3)N1)OCCc1c2sc(C(F)(F)F)c1CO [Compound 17, [(2'S,6'S,7S)-2'-methyl-6'-(1-methyltriazol-4-yl)-2-(trifluoromethyl)spiro[4,5-dihydrothieno[2,3-c]pyran-7,4'-piperidine]-3-yl]methanol]
IC90 [1]: < 50 nM | Emax (Multi-Tox Assay): 100%

C#C[C@@H]1C[C@]2(C[C@H](C)N1)OCC(F)(F)c1cc(Cl)sc12 [Compound 223, (2'S,6'S,7S)-2-chloro-2'-ethynyl-4,4-difluoro-6'-methyl-spiro[5H-thieno[2,3-c]pyran-7,4'-piperidine]]
IC90 [1]: > 500 nM | Emax (Multi-Tox Assay): 93%

C[C@H]1C[C@@]2(C[C@@H](c3cn(CC4CCOCC4)nn3)N1)OC[C@@H](O)c1cc(Cl)sc12 [Compound 267]
IC90 [1]: 50 to 500 nM

C[C@H]1C[C@@]2(C[C@@H](c3cn(Cc4cncs4)nn3)N1)OCC(F)(F)c1cc(Cl)sc12 [Compound 365]
IC90 (Multi-Tox Assay, APOL1 variant (G0/G1/G2) not stated in Table 46): 50 to 500 nM

C[C@H]1C[C@@]2(C[C@@H](c3ccn(C)n3)N1)OCCc1cc(Cl)sc12 (racemic) [Compound 118]
IC90 [1]: 50 to 500 nM | Multi-Tox Assay Max Activity (%) (Multi-Tox Assay): 99.3%

C[C@H]1C[C@@]2(C[C@@H](c3cn(CCC(N)=O)nn3)N1)OCC(F)(F)c1cc(Cl)sc12 [Compound 328]
IC90 [1]: 50 to 500 nM | Multi-Tox Assay Max Activity (%) (Multi-Tox Assay): 100.0%

Clc1cc2c(s1)C1(C[C@@H](C3CC3)N[C@@H](C3CC3)C1)OCC2 (single isomer, unassigned) [Compound 206]
IC90 [1]: 50 to 500 nM | Emax (Multi-Tox Assay): 99.3%

C[C@H]1C[C@@]2(C[C@@H](c3cccc(S(N)(=O)=O)c3)N1)OCCc1cc(Cl)sc12 (racemic) [Compound 147]
IC90 [1]: > 500 nM | Multi-Tox Assay Max Activity (%) (Multi-Tox Assay): 92.3%

C[C@@H]1CC2(C[C@H](C)N1)OCCc1c2sc(C(F)(F)F)c1CO (single isomer, unassigned) [Compound 208]
IC90 [1]: 50 to 500 nM | Emax (Multi-Tox Assay): 99.5%

C[C@H]1C[C@@]2(C[C@@H](c3ccc(N(C)C)nc3)N1)OCCc1cc(Cl)sc12 (racemic) [Compound 89]
IC90 [1]: < 50 nM | Emax (Multi-Tox Assay): 99.3%

Cc1nc[nH]c1[C@@H]1C[C@]2(C[C@H](C)N1)OCCc1cc(Cl)sc12 (racemic) [Compound 161]
IC90 [1]: > 500 nM | Multi-Tox Assay Max Activity (%) (Multi-Tox Assay): 92.4%

C[C@H]1C[C@@]2(C[C@@H](c3cccc(S(C)(=O)=O)c3)N1)OCCc1cc(Cl)sc12 (racemic) [Compound 146]
IC90 [1]: 50 to 500 nM | Multi-Tox Assay Max Activity (%) (Multi-Tox Assay): 97.0%

CC(C)N1CC(Cn2cc([C@@H]3C[C@]4(C[C@H](C)N3)OCC(F)(F)c3cc(Cl)sc34)nn2)CC1=O (stereo partly drawn) [Compound 327]
IC90 [1]: 50 to 500 nM | Multi-Tox Assay Max Activity (%) (Multi-Tox Assay): 98.0%
